Results as given in PMC6731595, “The anti-parasitic agent suramin and several of its analogues are inhibitors of the DNA binding protein Mcm10” (Open Biology, 2019).
{FAM} = 6-carboxyfluorescein (6FAM) label

Assays:
hMcm10-ID = molecular target: T1, hMcm10-ID (Homo sapiens, UniProt Q7L590); assay: FP saturation binding of probe to hMcm10-ID; details: probe 12.5 nM, mean ± SEM, n = 3
T1 construct: hMcm10-ID (residues 237 to 436) were expressed in E. coli strain BL21(DE3); 6xHis (HRV 3C site) (N, cleaved yes); made in house; host or cells: E. coli BL21(DE3)
T1 sequence (Q7L590 237-436): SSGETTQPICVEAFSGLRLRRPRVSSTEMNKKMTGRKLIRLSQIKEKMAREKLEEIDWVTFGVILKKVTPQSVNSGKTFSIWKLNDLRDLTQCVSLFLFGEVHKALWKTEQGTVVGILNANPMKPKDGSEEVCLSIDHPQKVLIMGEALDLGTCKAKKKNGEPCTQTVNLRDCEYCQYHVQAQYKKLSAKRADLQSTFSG
Protocol: (§1) The LOPAC pilot screen identified the sulfhydryl reagent 4-chloromercuribenzoic acid as an inhibitor in the fluorescence polarization (FP) assay. As there was no known Mcm10 inhibitor, 4-chloromercuribenzoic acid (30 μM) was used as a positive control on initial screening plates. Following the discovery of suramin as a Mcm10 inhibitor, suramin (7 μM) was used as a positive control on subsequent screening plates. To confirm activity, screening hits were tested in dose response experiments (8 concentrations in duplicate) using xMcm10-ID. Similar dose response experiments were conducted with suramin and its analogs to confirm activity for hMcm10-ID (1 μM) and xMcm10-FL (2 μM) and to determine selectivity relative to RPA70AB (0.4 μM). […] FP was measured in mP units, and ∆mP values for each well were calculated as the difference between the measured mP and the average of the “probe only” controls. […] The parallel and perpendicular mP values were also used to calculate total fluorescence intensity (TFI) determined by the sum of parallel mP + (2 x perpendicular mP). TFI was used to detect fluorescence interference by compounds [1]. […] IC50 values were calculated using the four parameter logistic equation in Prism 6.0 (GraphPad). […] KD values were calculated using the one site or two site binding equations in Prism 6.0 (GraphPad). […]

human RPA70AB = molecular target: T2, human RPA70AB (Homo sapiens, UniProt P27694); assay: FP saturation binding of probe to RPA70AB; details: probe 12.5 nM, mean ± SEM, n = 3, listed as 5′-6FAM DNA probe
T2 construct: recombinant human RPA70AB (181-422) in a pSV281 vector; 6xHis (TEV site) (N, cleaved yes); made in house; host or cells: Escherichia coli BL21(DE3)
Protocol: as §1

T2 sequence (P27694 181-422): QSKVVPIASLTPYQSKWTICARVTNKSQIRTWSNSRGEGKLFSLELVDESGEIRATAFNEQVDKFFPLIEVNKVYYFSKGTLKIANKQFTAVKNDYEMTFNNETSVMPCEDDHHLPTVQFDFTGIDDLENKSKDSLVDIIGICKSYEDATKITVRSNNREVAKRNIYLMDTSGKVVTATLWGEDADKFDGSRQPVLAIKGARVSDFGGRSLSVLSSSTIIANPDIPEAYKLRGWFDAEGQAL

5′-6-FAM-ATGGTAGGCA (DNA, 5' {FAM}, backbone and methylation of C not given here) [5’-6-FAM 10-mer ssDNA, 5′-6-carboxyfluorescein 10-mer DNA FP probe]
KD of FP probe for hMcm10-ID (hMcm10-ID): low micromolar affinity | Kd (human RPA70AB): 400 nM
